Measured values taken from PubChem BioAssay AID330 (DTP/NCI, 2004).
“And” between values parts separate entries of the source, which are not always exact repeats. Identical values can stand only once. Toxic doses and inconclusive results are not listed.

Tested on: P388 leukemia ip, CD2F1 mice, survival T/C
Assay: NCI In Vivo Anticancer Drug Screen. Data for tumor model P388 Leukemia (intraperitoneal) in CD2F1 (CDF1) mice
Conditions: endpoint: median survival time, higher = longer survival
How it was run: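 Mice carrying the transplanted tumor received test compound or vehicle. Survival was recorded in each group, and the value is the treated-group measurement divided by that of the vehicle-treated control group.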

[1] = dose: 50.0 mg/kg/injection, schedule: Q01DX009 (ip), vehicle: Klucel (hydroxypropylcellulose) (HPC)
[2] = dose: 100.0 mg/kg/injection, schedule: Q01DX009 (ip), vehicle: Klucel (hydroxypropylcellulose) (HPC)
[3] = dose: 200.0 mg/kg/injection, schedule: Q01DX009 (ip), vehicle: Klucel (hydroxypropylcellulose) (HPC)
[4] = dose: 100.0 mg/kg/injection, schedule: Q01DX009 (ip), vehicle: saline with Tween-80
[5] = dose: 400.0 mg/kg/injection, schedule: Q01DX009 (ip), vehicle: saline with Tween-80
[6] = dose: 200.0 mg/kg/injection, schedule: Q01DX009 (ip), vehicle: saline with Tween-80
[7] = dose: 200.0 mg/kg/injection, schedule: Q04DX003 (ip), vehicle: saline with Tween-80
[8] = dose: 100.0 mg/kg/injection, schedule: Q04DX003 (ip), vehicle: saline with Tween-80
[9] = dose: 400.0 mg/kg/injection, schedule: Q04DX003 (ip), vehicle: saline with Tween-80
[10] = dose: 100.0 mg/kg/injection, schedule: Q04DX002 (ip), vehicle: saline with Tween-80
[11] = dose: 200.0 mg/kg/injection, schedule: Q04DX002 (ip), vehicle: saline with Tween-80
[12] = dose: 400.0 mg/kg/injection, schedule: Q04DX002 (ip), vehicle: saline with Tween-80
[13] = dose: 25.0 mg/kg/injection, schedule: Q04DX003 (ip), vehicle: water
[14] = dose: 50.0 mg/kg/injection, schedule: Q04DX003 (ip), vehicle: water
[15] = dose: 25.0 mg/kg/injection, schedule: Q01DX009 (ip), vehicle: saline with Tween-80
[16] = dose: 50.0 mg/kg/injection, schedule: Q01DX009 (ip), vehicle: saline with Tween-80
[17] = dose: 50.0 mg/kg/injection, schedule: Q01DX009 (ip), vehicle: saline
[18] = dose: 100.0 mg/kg/injection, schedule: Q01DX009 (ip), vehicle: saline
[19] = dose: 100.0 mg/kg/injection, schedule: Q04DX003 (ip), vehicle: Klucel (hydroxypropylcellulose) (HPC)
[20] = dose: 200.0 mg/kg/injection, schedule: Q04DX003 (ip), vehicle: Klucel (hydroxypropylcellulose) (HPC)
[21] = dose: 50.0 mg/kg/injection, schedule: Q01DX005 (ip), vehicle: saline with Tween-80
[22] = dose: 100.0 mg/kg/injection, schedule: Q01DX005 (ip), vehicle: saline with Tween-80
[23] = dose: 200.0 mg/kg/injection, schedule: Q01DX005 (ip), vehicle: saline with Tween-80
[24] = dose: 400.0 mg/kg/injection, schedule: Q04DX003 (ip), vehicle: Klucel (hydroxypropylcellulose) (HPC)

## COc1ccccc1NC(=O)c1cc2cc(Br)ccc2cc1O
dose: 60.0 mg/kg/injection, schedule: Q01DX005 (ip), vehicle: saline with Tween-80
  T/C: 100 % of control
dose: 120.0 mg/kg/injection, schedule: Q01DX005 (ip), vehicle: saline with Tween-80
  T/C: 102 % of control
dose: 240.0 mg/kg/injection, schedule: Q01DX005 (ip), vehicle: saline with Tween-80
  T/C: 108 % of control

## O=[N+]([O-])c1ccccc1N=NNc1ccccc1
[1]
  T/C: 95 % of control
[2]
  T/C: 91 % of control
[3]
  T/C: 104 % of control

## NC(=O)c1cc([N+](=O)[O-])cc([N+](=O)[O-])c1
dose: 25.0 mg/kg/injection, schedule: Q01DX009 (ip), vehicle: Klucel (hydroxypropylcellulose) (HPC)
  T/C: 103 % of control
[1]
  T/C: 88 % of control
[2]
  T/C: 91 % of control

## O=NNc1ccc2cccnc2n1
dose: 3.12 mg/kg/injection, schedule: Q01DX009 (ip), vehicle: water
  T/C: 99 % of control and 115 % of control
dose: 6.25 mg/kg/injection, schedule: Q01DX009 (ip), vehicle: water
  T/C: 116 % of control and 123 % of control
dose: 25.0 mg/kg/injection, schedule: Q01DX009 (ip), vehicle: water
  T/C: 150 % of control
dose: 50.0 mg/kg/injection, schedule: Q01DX009 (ip), vehicle: water
  T/C: 187 % of control and 206 % of control

## O=c1cc(-c2ccccc2)[nH]c2c1CCCC2
[4]
  T/C: 116 % of control
[5]
  T/C: 176 % of control and 186 % of control

## Cc1ccc(N=Cc2ccc(C=Nc3ccc(C)c(Cl)c3)cc2)cc1Cl
[1]
  T/C: 92 % of control
[2]
  T/C: 91 % of control
[3]
  T/C: 100 % of control

## CCOc1ccc(C(=O)Nc2c(C)cc(C)cc2C)cc1
[4]
  T/C: 90 % of control
[6]
  T/C: 95 % of control
[5]
  T/C: 105 % of control

## c1cc2c(cc1C1SCSCS1)OCO2
[2]
  T/C: 100 % of control
[3]
  T/C: 120 % of control
dose: 400.0 mg/kg/injection, schedule: Q01DX009 (ip), vehicle: Klucel (hydroxypropylcellulose) (HPC)
  T/C: 110 % of control

## CCN(CC)CCCNc1ccc(C)c2sc3ccccc3c(=O)c12
dose: 12.5 mg/kg/injection, schedule: Q01DX005 (ip), vehicle: saline
  T/C: 100 % of control
dose: 25.0 mg/kg/injection, schedule: Q01DX005 (ip), vehicle: saline
  T/C: 109 % of control
dose: 50.0 mg/kg/injection, schedule: Q01DX005 (ip), vehicle: saline
  T/C: 99 % of control and 114 % of control

## Cc1ccc(S(=O)(=O)N(C)c2cc(Cl)c(C(=O)O)c(Cl)c2)cc1
dose: 88.0 mg/kg/injection, schedule: Q04DX003 (ip), vehicle: saline with Tween-80
  T/C: 99 % of control
dose: 133.0 mg/kg/injection, schedule: Q04DX003 (ip), vehicle: saline with Tween-80
  T/C: 100 % of control
[7]
  T/C: 99 % of control
dose: 300.0 mg/kg/injection, schedule: Q04DX003 (ip), vehicle: saline with Tween-80
  T/C: 100 % of control

## COc1cc([N+](=O)[O-])cc(/C=C(\C)C2SC(C)(C)C(C)CN2C)c1O (stereo not drawn)
[8]
  T/C: 109 % of control
[7]
  T/C: 103 % of control
[9]
  T/C: 100 % of control

## CN=C(N)NN=C(c1ccc(Br)cc1)c1ccc(Br)cc1
dose: 25.0 mg/kg/injection, schedule: Q04DX002 (ip), vehicle: saline with Tween-80
  T/C: 100 % of control and 106 % of control
dose: 50.0 mg/kg/injection, schedule: Q04DX002 (ip), vehicle: saline with Tween-80
  T/C: 103 % of control and 124 % of control

## O=C(CC(=O)c1ccccc1)C(=O)CC(=O)c1ccccc1
[10]
  T/C: 103 % of control
[11]
  T/C: 99 % of control
[12]
  T/C: 99 % of control

## O=C1NCC(N2C(=O)CC3(CCCC3)C2=O)O1 (stereo not drawn)
[1]
  T/C: 100 % of control
[2]
  T/C: 94 % of control
[3]
  T/C: 91 % of control

## CC(=O)[C@H]1CC[C@H]2[C@@H]3CCC4=CC(=O)[C@H](C)C[C@]4(C)[C@H]3C(=O)C[C@]12C
[8]
  T/C: 100 % of control
[7]
  T/C: 95 % of control
[9]
  T/C: 95 % of control

## CCn1c(=O)c2[nH]c(Cl)nc2n(CC)c1=O
[13]
  T/C: 91 % of control
[14]
  T/C: 103 % of control
dose: 100.0 mg/kg/injection, schedule: Q04DX003 (ip), vehicle: water
  T/C: 112 % of control

## CCOC(=O)c1ccc2c(c1)C(C)(SC)C(=O)N2 (stereo not drawn)
[15]
  T/C: 96 % of control
[16]
  T/C: 100 % of control
[4]
  T/C: 93 % of control

## CCCCCCCC/C=C\CCCCCCCC[N+]1([O-])CCOCC1
[17]
  T/C: 102 % of control
[18]
  T/C: 116 % of control

## COC(=O)c1cc(OC(C)=O)c2cc3c(cc2c1-c1cc(OC)c(OC)c(OC)c1)OCO3
[19]
  T/C: 93 % of control
[20]
  T/C: 89 % of control

## COC(=O)CC1(C(=O)OC)Oc2ccc(Br)cc2C(=O)N1c1cccc(Cl)c1Cl (stereo not drawn)
[21]
  T/C: 100 % of control
[22]
  T/C: 91 % of control
[23]
  T/C: 100 % of control

## Cc1cc(C=C2C(=O)NC(=O)NC2=O)cc(C)c1O
dose: 12.5 mg/kg/injection, schedule: Q01DX005 (ip), vehicle: saline with Tween-80
  T/C: 108 % of control
dose: 25.0 mg/kg/injection, schedule: Q01DX005 (ip), vehicle: saline with Tween-80
  T/C: 103 % of control
[21]
  T/C: 105 % of control and 119 % of control
[22]
  T/C: 117 % of control

## NC(=O)c1nnn(-c2ccccc2)n1
[19]
  T/C: 105 % of control
[20]
  T/C: 99 % of control
[24]
  T/C: 89 % of control

## O=C1OCCOCCOCCOCCOCCOC(=O)C1c1ccccc1
[1]
  T/C: 102 % of control
[2]
  T/C: 101 % of control
[3]
  T/C: 100 % of control

## COC(=O)C1C(O)C(C)C(O)C(C)/C=C\C=C(C)C(=O)Nc2c(C)c(OC(C)=O)c3c(c2O)C(=O)C(C)=C2OCOC(=C23)C(C)=CC(C)(O)C(O)C(C)C1O (stereo not drawn)
dose: 25.0 mg/kg/injection, schedule: Q01DX009 (ip), vehicle: saline
  T/C: 107 % of control
[17]
  T/C: 107 % of control
[18]
  T/C: 107 % of control
dose: 200.0 mg/kg/injection, schedule: Q01DX009 (ip), vehicle: saline
  T/C: 89 % of control

## CCC(=O)Nc1ncc([N+](=O)[O-])s1
[15]
  T/C: 94 % of control
[16]
  T/C: 86 % of control
[6]
  T/C: 86 % of control

## NS(=O)(=O)c1nc2nc[nH]c(=O)c2[nH]1
[21]
  T/C: 100 % of control
[22]
  T/C: 106 % of control
[23]
  T/C: 101 % of control

## c1cnc2c(c1)Sc1ncccc1S2
[16]
  T/C: 96 % of control
[4]
  T/C: 92 % of control

## Cc1ccc2c(c1)SP(c1ccccc1)S2 (stereo not drawn)
[10]
  T/C: 103 % of control
[11]
  T/C: 104 % of control
[12]
  T/C: 112 % of control

## CC(C)(CO)CS
[16]
  T/C: 99 % of control
[4]
  T/C: 100 % of control
[6]
  T/C: 97 % of control

## COc1cccc2c1C(=O)c1c(O)c3c(c(O)c1C2=O)CC(O)(/C(C)=N/NC(=O)CCC(=O)N/N=C(\C)C1(O)Cc2c(O)c4c(c(O)c2C(OC2CC(N(C)C)C(O)C(C)O2)C1)C(=O)c1c(OC)cccc1C4=O)CC3OC1CC(N(C)C)C(O)C(C)O1 (stereo not drawn)
dose: 1.0 mg/kg/injection, schedule: Q01DX009 (ip), vehicle: water
  T/C: 157 % of control
dose: 2.0 mg/kg/injection, schedule: Q01DX009 (ip), vehicle: water
  T/C: 183 % of control
dose: 3.13 mg/kg/injection, schedule: Q04DX003 (ip), vehicle: water
  T/C: 103 % of control
dose: 4.0 mg/kg/injection, schedule: Q01DX009 (ip), vehicle: water
  T/C: 178 % of control and 203 % of control
dose: 6.25 mg/kg/injection, schedule: Q04DX003 (ip), vehicle: water
  T/C: 110 % of control
dose: 8.0 mg/kg/injection, schedule: Q01DX009 (ip), vehicle: water
  T/C: 160 % of control and 240 % of control
dose: 12.5 mg/kg/injection, schedule: Q04DX003 (ip), vehicle: water
  T/C: 117 % of control
dose: 16.0 mg/kg/injection, schedule: Q01DX009 (ip), vehicle: water
  T/C: 152 % of control
[13]
  T/C: 174 % of control
[14]
  T/C: 119 % of control

## CN(C)c1cc2c(nn1)Nc1ccccc1S2
[16]
  T/C: 96 % of control
[4]
  T/C: 96 % of control
[6]
  T/C: 90 % of control

## CN1NC(C)(c2cccnc2)SC1=S (stereo not drawn)
[16]
  T/C: 95 % of control
[4]
  T/C: 100 % of control
[6]
  T/C: 97 % of control

## COC(OC)C1(C)NC(=O)NC1=O (stereo not drawn)
[1]
  T/C: 102 % of control
[2]
  T/C: 103 % of control
[19]
  T/C: 95 % of control
[3]
  T/C: 93 % of control
[20]
  T/C: 98 % of control
[24]
  T/C: 100 % of control
